Measured values from US20240415819A1, “MACROCYCLIC COMPOUNDS AS PROTEASOME SUBUNIT BETA TYPE-5 INHIBITORS” (Lead Discovery Center GmbH, priority 2021, published 2024).

Columns and labels:
[1] = tested on: A549 (human lung carcinoma cell line); experiment: Glo assay of A549 cells (Table 3; ProteasomeGlo plating scheme); type: cell-based; conditions: Homo sapiens; A549 cells; read-out: PGLo A549
Method in brief: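 After acoustic compound transfer, plates incubate 105 min (37° C., 5% CO2). Proteasome-Glo reagent containing Suc-LLVY-Glo substrate is added, plates are shaken, then luminescence is measured after 10-15 min to derive IC50 [nM]. Staurosporine and DMSO serve as controls.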

[2] = tested on: HT-29 cells; experiment: CellTiter-Glo luminescent cell viability assay with HT-29 cells (72h incubation); type: cell-based, human; conditions: Homo sapiens, HT-29, HT29 cells, read-out: CTG HT29
Method in brief: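 Viability read as CellTiter-Glo luminescence after 72 h compound exposure, with 10 μM staurosporine and DMSO as control wells. Seeding 400 cells per well, compound added 24 h post-plating; IC50 from curve fitting.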

SMILES | IC50 [1] [nM] | IC50 [2] [nM]
Cc1ccc2cc1CNC(=O)[C@H](CCc1ccccc1)NC(=O)[C@@H](NC(=O)OCc1ccccc1)CCCC(=O)N1CCCC(CCO2)C1 (stereo partly drawn) [Compound 195, benzyl ((9S,12S)-5^4-methyl-8,11,16-trioxo-9-phenethyl-4-oxa-7,10-diaza-1(3,1)-piperidina-5(1,3)-benzenacyclohexadecaphane-12-yl)carbamate] | 100 to 500 | < 100
Cc1ccc2cc1CNC(=O)[C@H](CCc1ccccc1)NC(=O)[C@@H](NC(=O)C1(N)CCOC1)CC(=O)N1CCCC(CCO2)C1 (stereo partly drawn) [Compound 159, 3-amino-N-((9S,12S)-5^4-methyl-8,11,14-trioxo-9-phenethyl-4-oxa-7,10-diaza-1(3,1)-piperidina-5(1,3)-benzenacyclotetradecaphane-12-yl)tetrahydrofuran-3-carboxamide] | 100 to 500 | < 100
Cc1ccc2cc1CNC(=O)[C@H](CCc1ccccc1)NC(=O)[C@@H](NC(=O)[C@H](C)c1ccccc1)CC(=O)N1CCCC(CCO2)C1 (stereo partly drawn) [Compound 80, (2R)-N-((9S,12S)-5^4-methyl-8,11,14-trioxo-9-phenethyl-4-oxa-7,10-diaza-1(3,1)-piperidina-5(1,3)-benzenacyclotetradecaphane-12-yl)-2-phenylpropanamide] | < 100 | < 100
Cc1ccc2cc1CNC(=O)[C@H](CCc1ccccc1)NC(=O)[C@@H](NC(=O)c1ccccc1)CC(=O)N1CCCC(CCO2)C1 (stereo partly drawn) [Compound 26, N-((9S,12S)-5^4-methyl-8,11,14-trioxo-9-phenethyl-4-oxa-7,10-diaza-1(3,1)-piperidina-5(1,3)-benzenacyclotetradecaphane-12-yl)benzamide] | < 100 | < 100
COc1ccc2cc1CNC(=O)[C@H](CCc1ccccc1)NC(=O)[C@@H](NC(C)=O)CC(=O)N1CCCC(CCO2)C1 (stereo partly drawn) [Compound 211, N-((9S,12S)-5^4-methoxy-8,11,14-trioxo-9-phenethyl-4-oxa-7,10-diaza-1(3,1)-piperidina-5(1,3)-benzenacyclotetradecaphane-12-yl)acetamide] | 500 to 1000 | 100 to 500
CC(=O)N[C@H]1CC(=O)N2CCCC(CCOc3ccc(C)c(c3)CNC(=O)C(c3cnn(CCCC(=O)O)c3)NC1=O)C2 (stereo partly drawn) [Compound 568, 4-(4-((12S)-12-acetamido-5^4-methyl-8,11,14-trioxo-4-oxa-7,10-diaza-1(3,1)-piperidina-5(1,3)-benzenacyclotetradecaphane-9-yl)-1H-pyrazol-1-yl)butanoic acid] | < 100 | 100 to 500
CC(=O)N[C@H]1CCC(=O)NCCCCOc2ccc(C)c(c2)CNC(=O)[C@H](CCc2ccccc2)NC1=O [Compound 171, N-((11S,14S)-1^4-methyl-8,12,15-trioxo-14-phenethyl-2-oxa-7,13,16-triaza-1(1,3)-benzenacycloheptadecaphane-11-yl)acetamide] | 500 to 1000 | 100 to 500
Cc1ccc2cc1CNC(=O)[C@H](CCc1ccccc1)NC(=O)CCCCC(=O)N1CCCC(CCO2)C1 (stereo partly drawn) [Compound 16, (9S)-5^4-methyl-9-phenethyl-4-oxa-7,10-diaza-1(3,1)-piperidina-5(1,3)-benzenacyclohexadecaphane-8,11,16-trione] | 500 to 1000 | 100 to 500
Cc1ccc2cc1CNC(=O)[C@H](CCc1ccccc1)NC(=O)[C@@H](NS(=O)(=O)CCc1ccccc1)CC(=O)N1CCCC(CCO2)C1 (stereo partly drawn) [Compound 217, N-((9S,12S)-5^4-methyl-8,11,14-trioxo-9-phenethyl-4-oxa-7,10-diaza-1(3,1)-piperidina-5(1,3)-benzenacyclotetradecaphane-12-yl)-2-phenylethane-1-sulfonamide] | < 100 | < 100
Cc1ccc2cc1CNC(=O)[C@H](C)NC(=O)CCC(=O)N1CCCC(CCO2)C1 (stereo partly drawn) [Compound 78, (9S)-5^4,9-dimethyl-4-oxa-7,10-diaza-1(3,1)-piperidina-5(1,3)-benzenacyclotetradecaphane-8,11,14-trione] | > 5000 | 

Further lines, results first:

IC50 [1] [nM] | IC50 [2] [nM] | SMILES
< 100 | < 100 | Cc1ccc2cc1CNC(=O)[C@H](CCc1ccccc1)NC(=O)[C@@H](NC(=O)[C@@H](C)c1ccccc1)CC(=O)N1CCCC(CCO2)C1 (stereo partly drawn) [Compound 81, (2S)-N-((9S,12S)-5^4-methyl-8,11,14-trioxo-9-phenethyl-4-oxa-7,10-diaza-1(3,1)-piperidina-5(1,3)-benzenacyclotetradecaphane-12-yl)-2-phenylpropanamide]
< 100 | < 100 | Cc1ccc2cc1CNC(=O)[C@H](CCc1ccccc1)NC(=O)[C@@H](NC(=O)c1ccccn1)CC(=O)N1CCCC(CCO2)C1 (stereo partly drawn) [Compound 40, N-((9S,12S)-5^4-methyl-8,11,14-trioxo-9-phenethyl-4-oxa-7,10-diaza-1(3,1)-piperidina-5(1,3)-benzenacyclotetradecaphane-12-yl)picolinamide]
< 100 | < 100 | Cc1ccc2cc1CNC(=O)[C@H](CCc1ccccc1)NC(=O)[C@@H](NC(=O)C1CCNCC1(F)F)CC(=O)N1CCCC(CCO2)C1 (stereo partly drawn) [Compound 152, 3,3-difluoro-N-((9S,12S)-5^4-methyl-8,11,14-trioxo-9-phenethyl-4-oxa-7,10-diaza-1(3,1)-piperidina-5(1,3)-benzenacyclotetradecaphane-12-yl)piperidine-4-carboxamide]
< 100 | < 100 | Cc1ccc2cc1CNC(=O)[C@H](CCc1ccccc1)NC(=O)[C@@H](NC(=O)CN1CCOCC1)CC(=O)N1CCCC(CCO2)C1 (stereo partly drawn) [Compound 88, N-((9S,12S)-5^4-methyl-8,11,14-trioxo-9-phenethyl-4-oxa-7,10-diaza-1(3,1)-piperidina-5(1,3)-benzenacyclotetradecaphane-12-yl)-2-morpholinoacetamide]
< 100 | < 100 | Cc1ccc2cc1CNC(=O)[C@H](CCc1ccccc1)NC(=O)[C@@H](NC(=O)CCc1ccccc1-c1ccccc1)CC(=O)N1CCCC(CCO2)C1 (some centres unmarked) [Compound 177]
< 100 | < 100 | Cc1ccc2cc1CNC(=O)[C@H](CCc1ccccc1)NC(=O)[C@@H](NC(=O)OCc1ccccc1)CCC(=O)N1CCCC(CCO2)C1 (stereo partly drawn) [Compound 199, benzyl ((9S,12S)-5^4-methyl-8,11,15-trioxo-9-phenethyl-4-oxa-7,10-diaza-1(3,1)-piperidina-5(1,3)-benzenacyclopentadecaphane-12-yl)carbamate]
< 100 | < 100 | Cc1nc2cc(CCC(=O)N[C@H]3CC(=O)N4CCCC(CCOc5ccc(C)c(c5)CNC(=O)[C@H](CCc5ccccc5)NC3=O)C4)ccc2[nH]1 (stereo partly drawn) [Compound 174, 3-(2-methyl-1H-benzo[d]imidazol-6-yl)-N-((9S,12S)-5^4-methyl-8,11,14-trioxo-9-phenethyl-4-oxa-7,10-diaza-1(3,1)-piperidina-5(1,3)-benzenacyclotetradecaphane-12-yl)propanamide]
< 100 | < 100 | Cc1ccc2cc1CNC(=O)[C@H](CCc1ccccc1)NC(=O)[C@@H](NC(=O)C1(N)COC1)CC(=O)N1CCCC(CCO2)C1 (stereo partly drawn) [Compound 158, 3-amino-N-((9S,12S)-5^4-methyl-8,11,14-trioxo-9-phenethyl-4-oxa-7,10-diaza-1(3,1)-piperidina-5(1,3)-benzenacyclotetradecaphane-12-yl)oxetane-3-carboxamide]
